Consider 17 compounds from patent publication US8946224B2, “Substituted [1,2,4]triazolo[4,3-A]pyrazines for medicaments and pharmaceutical compositions” (Redx Pharma Limited, priority 2010, dated 2015).

Test [1] has as its system PathHunter NHRPro cell lines. The test is described as follows: PathHunter NHRPro cell assay, antagonist format (Examples 90-92). The class given is cell-based. The note with it: for Emax: read-out: Max Response; for IC50: read-out: RC50 (IC50). As to the method: Methodology for Examples 90-92 Cell Handling
PathHunter NHRPro cell lines were expanded from freezer stocks in T25 flasks according to standard procedures and maintained in selective growth media prior to assay.
Once it was established that the cells were healthy and growing normally, cells were passaged from flasks using cell dissociation reagent and seeded into white walled clear bottom 384-well microplates for compound profiling.
For profiling, cells were seeded at a density of 10000 cells per well in a total volume of 20 μL and were allowed to adhere and recover overnight prior to compound addition. Media contained charcoal-dextran filtered serum to reduce the level of hormones present.
Agonist dose curves were performed the morning of profiling to determine the EC80 value for the following antagonist testing with compounds. 5 μL of 5× agonist was added to each well with an equal concentration of vehicle present.
EC80 agonist concentration was determined directly from agonist dose curve.
For antagonist determination, cells were pre-incubated with antagonist followed by agonist challenge at the EC80 concentration.
5 μL of 5× compound added to cells and incubated at 37° C. for 30 minutes.
5 μL of 6× EC80 agonist added to cells and incubated at 37° C. for 90 minutes (180 minutes for EDG2 and EDG8).
After appropriate compound incubation, assay signal was generated through a single addition of 15 μL (50% v/v) of PathHunter Detection reagent cocktail for agonist and antagonist assays respectively followed by one hour incubation at room temperature.
Microplates were read following signal generation with a PerkinElmer Envision™ instrument for chemiluminescent signal detection.
Dose curves in the presence and absence of compound were plotted using GraphPad Prism or Activity Base.

The next test deals with HepG2 cells. In words: HepG2 cytotoxicity, MTT, 72 hours (Examples 93-95). The note with it: Cell Loss; for AC50: Homo sapiens, HepG2, read-out: AC50 (concentration at which 50% maximum effect is observed). The class given is cell-based. As for the experimental part:
Methodology for Examples 93-95
A number of analogues were tested for their ability to kill cancer cells.
HepG2 cells were plated on 96-well tissue culture treated polystyrene plates at 0.5×10^4 cells in 100 μL per well. After 24 hr the cells are dosed with test compound at a range of concentrations and incubated for 72 hours. One hour prior to the end of the incubation period, the cells are loaded with MU [yellow; 3-(4,5-dimethyl-2-thiazolyl)-2,5-diphenyl-2H-tetrazolium bromide], the plates are dried and re-solubilised using DMSO. The plates are then scanned using SpectraFluor Plus (TECAN).
Cytotoxicity was assessed using MU. The assay provides a measurement of mitochondrial dehydrogenase activity and cell loss.
A decrease can indicate a loss of cells indicating toxicity due to necrosis, apoptosis or a reduction in cellular proliferation.
A decrease can also indicate an effect on mitochondrial function as mitochondrial dehydrogenasesreduce the MTT [yellow; 3-(4,5-dimethyl-2-thiazolyl)-2,5-diphenyl-2H-tetrazolium bromide] to formazan. The formazan is detected in this assay.
The cells were dosed at concentrations of 0.04, 0.1, 0.4, 1, 4, 10, 40 and 100 μM. The assay was repeated three times at each concentration.
AC50=The concentration at which 50% maximum effect is observed for each cell health parameter.
The cells were dosed at concentrations of 0.02, 0.05, 0.2, 0.5, 2, 5, 20 and 50 μM. The assay was repeated three times at each concentration.
The cells were dosed at concentrations of 0.04, 0.1, 0.4, 1, 4, 10, 40 and 100 μM for bexarotene and the compound of formula 102 when Z is CH═NOH (compound 13a). The cells were dosed at concentrations of 0.02, 0.05, 0.2, 0.5, 2, 5, 20 and 50 μM for the compound of formula 102 when Z is CH═NOMe (compound 13b). The assay was repeated three times at each concentration.

A further test concerns the target T1, recombinant human MAO-B (Homo sapiens, UniProt P27338).
T1 sequence (P27338 1-520): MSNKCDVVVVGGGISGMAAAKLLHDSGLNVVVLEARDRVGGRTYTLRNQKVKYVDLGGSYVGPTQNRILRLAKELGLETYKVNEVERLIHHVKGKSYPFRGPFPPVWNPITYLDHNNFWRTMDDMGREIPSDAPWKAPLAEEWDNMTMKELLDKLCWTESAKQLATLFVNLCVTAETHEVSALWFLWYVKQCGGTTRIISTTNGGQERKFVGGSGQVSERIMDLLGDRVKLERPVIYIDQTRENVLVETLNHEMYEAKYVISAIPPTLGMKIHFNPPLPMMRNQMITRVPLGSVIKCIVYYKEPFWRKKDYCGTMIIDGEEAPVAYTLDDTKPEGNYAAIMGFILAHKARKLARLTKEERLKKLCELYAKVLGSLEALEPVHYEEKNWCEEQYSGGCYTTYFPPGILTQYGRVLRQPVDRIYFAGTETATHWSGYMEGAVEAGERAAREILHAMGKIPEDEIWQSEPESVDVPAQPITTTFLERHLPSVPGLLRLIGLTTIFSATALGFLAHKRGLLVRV
The test is described as follows: MAO-B inhibition, kynuramine substrate, LC-MS/MS of 4-hydroxyquinoline (Example 99). The class given is biochemical. The note with it: for remaining activity at 0.001 µM: 0.001 μM test compound; for remaining activity at 0.001 µM / remaining activity at 0.01 µM / remaining activity at 0.04 µM / remaining activity at 0.1 µM / remaining activity at 0.4 µM / remaining activity at 1 µM / remaining activity at 10 µM: kynuramine 25 μM, read-out: Mean % Activity Remaining (n = 2); for remaining activity at 0.01 µM: 0.010 μM test compound; for remaining activity at 0.04 µM: 0.04 μM test compound; for remaining activity at 0.1 µM: 0.1 μM test compound; for remaining activity at 0.4 µM: 0.4 μM test compound; for remaining activity at 1 µM: 1 μM test compound; for remaining activity at 10 µM: 10 μM test compound; for IC50: MAO-B, substrate kynuramine 25 μM. As to the method: Eight test compound concentrations (0.001-10 μM; final DMSO concentration 0.5%) were incubated with recombinant human MAO-B (2 μg/mL) in the presence of the probe substrate kynuramine (25 μM) for 25 min at 37° C. Each test compound concentration was assessed in duplicate. […] The reactions were terminated by addition of methanol containing internal standard for analytical quantification. The quenched samples were incubated at 4° C. for 10 min and centrifuged at 4° C. for 10 min. The supernatant was removed and analysed by LC-MS/MS for the probe metabolite 4-hydroxyquinoline. Generic Cyprotex LC-MS/MS analytical conditions were used.
A decrease in the formation of the metabolite compared to vehicle control was used to calculate an IC50 value.

[2] abbreviates: Example 95, dosed 0.04-100 μM (compound 13b 0.02-50 μM).

Where two headings read alike, the source gives them in different places.

Broadly, the IC50 is the concentration needed to halve the response being measured. For `Cc1ccc(F)cc1CNc1ccc(C(=O)N2Cc3cccn3Cc3ccccc32)c(Cl)c1` [Compound 15b, (5H-Benzo[e]pyrrolo[1,2-a][1,4]diazepin-10(11H)-yl)(2-chloro-4-(5-fluoro-2-methylbenzylamino)phenyl)methanone], in test [1] (AVPR2, Arrestin), the Emax came out at 79.4% and the IC50 was 2370 nM.
For the compound `C=C(c1ccc(C=NOC)cc1)c1cc2c(cc1C)C(C)(C)CCC2(C)C` [Compound 13b, 4-(1-(3,5,5,8,8-Pentamethyl-5,6,7,8-tetrahydronaphthalen-2-yl)vinyl)benzaldehyde O-methyl oxime], in the test with HepG2 cells (setting [2]), the “MEC (minimum effective concentration that significantly crosses vehicle threshold)” value was 50 µM and the AC50 turned out to be 45600 nM.
For the compound `CCOc1nc2cccc(C=NOC)c2n1Cc1ccc(-c2ccccc2-c2nnn[nH]2)cc1` [Compound 10b, 1-((2′-(1H-tetrazol-5-yl)-[1,1′-biphenyl]-4-yl)methyl)-2-ethoxy-1H-benzo[d]imidazole-7-carbaldehyde O-methyl oxime], in test [1] (AGTR1, Arrestin), the Emax stood at 98.8% and the 50% inhibitory concentration (IC50) is 48.8 nM.
In general, remaining activity refers to the signal under treatment as a percentage of the control signal. Consider `C[C@@H](C=NO)NCc1ccc(OCc2cccc(F)c2)cc1` [Compound 31a, (S)-2-(4-(3-Fluorobenzyloxy)benzylamino)propanal oxime], for which, on recombinant human MAO-B, the remaining activity at 0.001 µM is 90%, the remaining activity at 0.01 µM was found to be 84%, the remaining activity at 0.04 µM worked out at 73% and the remaining activity at 0.1 µM was found to be 65%. Moreover, at recombinant human MAO-B, the remaining activity at 0.4 µM came to 50%, the remaining activity at 1 µM is 26%, the remaining activity at 10 µM came out at 4% and the IC50 was determined as 246 nM.
Regarding `CCCCC(=O)N(Cc1ccc(-c2ccccc2-c2nnn[nH]2)cc1)[C@H](C(=O)O)C(C)C` [Valsartan], in test [1] (AGTR1, Arrestin), the Emax was 106% and the IC50 was found to be 1.7 nM.
With `C[C@H](NCc1ccc(OCc2cccc(F)c2)cc1)C(N)=O` [Safinamide, safinamide, reference compound], at recombinant human MAO-B, the remaining activity at 0.001 µM is 101%, the remaining activity at 0.01 µM was found to be 95%, the remaining activity at 0.04 µM turned out to be 79% and the remaining activity at 0.1 µM came to 62%. Moreover, on recombinant human MAO-B, the remaining activity at 0.4 µM is 31%, the remaining activity at 1 µM worked out at 13% and the remaining activity at 10 µM came out at 2%.
Turning to `CCCCc1nc(Cl)c(CO)n1Cc1ccc(-c2ccccc2-c2nn[nH]n2)cc1` [Losartan], in test [1] (AGTR1, Arrestin), the Emax came to 98.6% and the IC50 is 8.21 nM.
Turning to `CCOc1nc2cccc(C=NO)c2n1Cc1ccc(-c2ccccc2-c2nnn[nH]2)cc1` [Compound 10a, 1-((2′-(1H-Tetrazol-5-yl)-[1,1′-biphenyl]-4-yl)methyl)-2-ethoxy-1H-benzo[d]imidazole-7-carbaldehyde oxime], in test [1] (AGTR1, Arrestin), the Emax amounted to 101% and the IC50 was found to be 46.5 nM.
On to `CC(=O)c1c(C)c2cnc(Nc3ccc(N4CCNCC4)cn3)nc2n(C2CCCC2)c1=O` [PD-0332991], for which, in the test with HepG2 cells (Example 94, dosed 0.02-50 μM), the “MEC (minimum effective concentration that significantly crosses vehicle threshold)” value came to 0.2 µM and the AC50 was determined as 1930 nM.
As to `Cc1ccc(F)cc1C(=O)Nc1ccc(CN2Cc3cccn3Cc3ccccc32)c(Cl)c1` [Compound 15a, N-(4-((5H-Benzo[e]pyrrolo[1,2-a][1,4]diazepin-10(11H)-yl)methyl)-3-chlorophenyl)-5-fluoro-2-methylbenzamide], in test [1] (AVPR2, Arrestin), the Emax was found to be 108% and the IC50 came out at 3.8 nM.
Turning to `C=C(c1ccc(C(=O)O)cc1)c1cc2c(cc1C)C(C)(C)CCC2(C)C` [Bexarotene, bexarotene, reference compound], in the test with HepG2 cells (setting [2]), the “MEC (minimum effective concentration that significantly crosses vehicle threshold)” value worked out at 40 µM and the AC50 amounted to 44300 nM.
For the compound `CON=C[C@H](C)NCc1ccc(OCc2cccc(F)c2)cc1` [Compound 31b, (S)-2-(4-(3-Fluorobenzyloxy)benzylamino)propanal O-methyl oxime], on recombinant human MAO-B, the remaining activity at 0.001 µM was 90%, the remaining activity at 0.01 µM came to 75%, the remaining activity at 0.04 µM is 57% and the remaining activity at 0.1 µM came to 34%. For the same compound, at recombinant human MAO-B, the remaining activity at 0.4 µM turned out to be 15%, the remaining activity at 1 µM was determined as 6%, the remaining activity at 10 µM was determined as 1% and the IC50 stood at 46 nM.
Take `CCOc1nc2cccc(C(=O)O)c2n1Cc1ccc(-c2ccccc2-c2nnn[nH]2)cc1` [Candesartan]: in test [1] (AGTR1, Arrestin), the Emax amounted to 101% and the IC50 was determined as 9.87 nM.
`CCCCc1nc(Cl)c(C=NOC)n1Cc1ccc(-c2ccccc2-c2nn[nH]n2)cc1` [Compound 4b, 1-((2′-(2H-Tetrazol-5-yl)-[1′,1′-biphenyl]-4-yl)methyl)-2-butyl-4-chloro-1H-imidazole-5-carbaldehyde O-methyl oxime]: in test [1] (AGTR1, Arrestin), the Emax amounted to 97.4% and the 50% inhibitory concentration (IC50) stood at 248 nM.
Turning to `Cn1c(CCCC=NO)nc2cc(N(CCCl)CCCl)ccc21` [Compound 6b, 4-(5-(Bis(2-chloroethyl)amino)-1-methyl-1H-benzo[d]imidazol-2-yl)butanal oxime], in the test on HepG2 cells (Example 93, dosed 0.04-100 μM), the “MEC (minimum effective concentration that significantly crosses vehicle threshold)” value came out at 10 µM and the AC50 was 17300 nM.
Consider `CCCCc1nc(Cl)c(C=NO)n1Cc1ccc(-c2ccccc2-c2nn[nH]n2)cc1` [Compound 4a, 1-((2′-(2H-Tetrazol-5-yl)-[1,1′-biphenyl]-4-yl)methyl)-2-butyl-4-chloro-1H-imidazole-5-carbaldehyde oxime], for which, in test [1] (AGTR1, Arrestin), the Emax was 96.7% and the IC50 turned out to be 109 nM.
`Cc1ccc(F)cc1C(=O)Nc1ccc(C(=O)N2Cc3cccn3Cc3ccccc32)c(Cl)c1` [Lixivaptan, lixivaptan, reference compound]: in test [1] (AVPR2, Arrestin), the Emax stood at 102% and the IC50 came out at 1.28 nM.
